Values of other authors as cited in article PMC6832141, “Synthesis and Cyclooxygenase Inhibition of Sulfonamide-Substituted (Dihydro)Pyrrolo[3,2,1-hi]indoles and Their Potential Prodrugs” (Molecules, 2019).
Like-named read-outs stand apart in the source and are kept apart here.

What was measured:
[1] = design: method as in doi:10.1002/slct.201601618, PMID 12064545; conditions: reference substances for the HPLC logD method; cited from earlier work
hCOX-2 = conditions: read-out: IC50 hCOX-2; cited from earlier work
[2] = rat plasma, parecoxib leading to valdecoxib, cited from earlier work

| Structure (SMILES) | logD7.4 of HPLC references [1] | IC50 (hCOX-2) [µM] | elimination half-life T1/2 ([2]; ref 19) [min] | elimination half-life T1/2 ([2]; ref 23) [min] |
| --- | --- | --- | --- | --- |
| C[C@]12CCC(=O)C=C1CC[C@@H]1[C@@H]2[C@@H](O)C[C@@]2(C)[C@H]1CC[C@]2(O)C(=O)CO [Hydrocortisone] | 1.65 |  |  |  |
| CCC(=O)NS(=O)(=O)c1ccc(-c2c(-c3ccccc3)noc2C)cc1 [parecoxib] |  | 20 | 8.1 | 41.4 |
